Strand notation (5' to 3'): a small letter for the sugar, then the base; units joined by * are phosphorothioate-linked, units joined directly phosphodiester-linked; [ ] holds rarer units or linkages, { } end groups; capitals alone tell only the bases. [ms] = mesyl phosphoramidate linkage; e = 2'-O-(2-methoxyethyl) (MOE); k = constrained ethyl (cEt); [5mC] = 5-methylcytosine; d = 2'-deoxy (DNA)
Tested on: human APOE RNA
Experiment: Activity in APOE C57BL/6NTac-Apoeem7250 knock-in mice, single ICV bolus, 8 weeks (Example 11)
Type: in vivo
Details: for APOE RNA (% control) Cortex / APOE RNA (% control) Spinal Cord: single ICV bolus 300 μg, 8 weeks post treatment, normalized to mouse Ppia
Experimental: Modified oligonucleotides described above were tested in the APOE C57BL/6NTac-Apoeem7250 knock-in mouse model described above.
Each mouse received a single ICV bolus of 300 μg of modified oligonucleotide. A group of 3-4 mice received a single ICV bolus with PBS as a negative control.
Eight weeks post treatment, mice were sacrificed and RNA was extracted from cortical brain tissue and spinal cord for quantitative real-time RT-PCR analysis of RNA expression of APOE using human primer probe set RTS3073 (described herein above). APOE RNA levels were normalized to mouse Ppia. Mouse Ppia was amplified using primer probe set m_cyclo24 (described herein above). Results are presented as percent human APOE RNA relative to the amount of human APOE RNA in PBS treated animals, (% control). Each experiment is identified in separate tables below.

| Substance | APOE RNA (% control) Cortex | APOE RNA (% control) Spinal Cord | reduction of human APOE RNA in the cortex (APOE knock-in mouse model, 8 weeks post administration, assay of Example 11) |
| --- | --- | --- | --- |
| 1809813 (eT*eTeGkG*dT*dG[ms]dA[ms]dA[ms]dT*d[5mC]*dT*dT*dT*dA[ms]kT*kT*eA*eA*eA*e[5mC]; antisense) [Compound 1809813] | 37 % control | 32 % control |  |
| 1652898: 6-10-4 MOE gapmer GGTGAATCTTTATTAAACTA, linkages sooooossssssssssoss (antisense eG*eGeTeGeAeAdT*d[5mC]*dT*dT*dT*dA*dT*dT*dA*dA*eAe[5mC]*eT*eA) [compound 1652898] | 56 % control | 20 % control |  |
| 1810065: mixed MOE/cEt gapmer CTTGGTGAATCTTTATTAAAC, sugar eeeeekddddddddddeeeee, linkages ssoosszzzssssszsooss (listed as DNA, chemistry not fully specified) [compound 1810065] | 29 % control | 21 % control |  |
| 1652900: 6-10-4 MOE gapmer GTGAATCTTTATTAAACTAG, linkages sooooossssssssssoss (antisense eG*eTeGeAeAeTd[5mC]*dT*dT*dT*dA*dT*dT*dA*dA*dA*e[5mC]eT*eA*eG) [compound 1652900] | 83 % control | 47 % control |  |
| 1652919: 6-10-4 MOE gapmer GGTGAATCTTTATTAAACTA, linkages soooooszzzssssssoss (antisense eG*eGeTeGeAeAdT*d[5mC][ms]dT[ms]dT[ms]dT*dA*dT*dT*dA*dA*eAe[5mC]*eT*eA) [compound 1652919] | 90 % control | 54 % control |  |
| 1809818 (eT*eTeGkG*dT*dG[ms]dA[ms]dA[ms]dT*d[5mC]*dT*dT*dT*dA[ms]kT*kTeAeA*eA*e[5mC]; antisense) [Compound 1809818] | 42 % control | 36 % control |  |
| 1652909: 5-10-5 MOE gapmer GGTGAATCTTTATTAAACTA, linkages soooszzzzssssssooss (antisense eG*eGeTeGeA*dA[ms]dT[ms]d[5mC][ms]dT[ms]dT*dT*dA*dT*dT*dA*eAeAe[5mC]*eT*eA) [compound 1652909] | 55 % control | 23 % control |  |
| Compound No. 1517578: comparator of WO 2022/066956; CTTGGTGAATCTTTATTAAA, sugar eeeeeddddddddddeeeee, linkages sooosssssssssssooss (MOE gapmer, mixed PS/PO linkages, chemistry not fully specified) [reference compound] | 66 % control | 47 % control | 34% |
| 1810069: mixed MOE/cEt gapmer CTTGGTGAATCTTTATTAAAC, sugar eeeeekddddddddddeeeee, linkages zsossszzzssssszsoosz (e[5mC][ms]eT*eTeG*eG*kT*dG[ms]dA[ms]dA[ms]dT*d[5mC]*dT*dT*dT*dA[ms]dT*eTeAeA*eA[ms]e[5mC]) [compound 1810069] | 24 % control | 27 % control |  |
| 1652912: 5-10-5 MOE gapmer GGTGAATCTTTATTAAACTA, linkages sooossssssszsszooss (antisense eG*eGeTeGeA*dA*dT*d[5mC]*dT*dT*dT*dA[ms]dT*dT*dA[ms]eAeAe[5mC]*eT*eA) [compound 1652912] | 95 % control | 41 % control |  |
